Eight cell lines from the supplement of paper PMC10307832 can be followed below.

Holding throughout (test): relative viability (nuclei count vs DMSO), 5 days (fraction); higher = more cells survive
Compound in the experiment “CUDC-101 + Pictilisib”: C#Cc1cccc(Nc2ncnc3cc(OC)c(OCCCCCCC(=O)NO)cc23)c1 [CUDC-101] + CS(=O)(=O)N1CCN(Cc2cc3nc(-c4cccc5[nH]ncc45)nc(N4CCOCC4)c3s2)CC1 [Pictilisib] (partner 1 µM)
The gist of the method:
(§1)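 Values are medians from duplicate plates. Each reflects relative viability, defined as the nuclei count of treated wells over that of vehicle wells. Lung cancer cell lines in 1536-well plates were pin-tool dosed one day after seeding with one drug alone or with a fixed anchor-drug dose plus five library-drug doses (not always all listed) in √10 steps, then fixed, stained and imaged at 4× after 5 days.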

Compound in experiment [1]: C1=CC=C2C(=C1)N=C(S2)C(C#N)C3=NC(=NC=C3)NCCC4=CN=CC=C4 + CCNC(=O)c1noc(-c2cc(C(C)C)c(O)cc2O)c1-c1ccc(CN2CCOCC2)cc1 [Luminespib] (partner 0.01 µM)
The gist of the method: as §1

Compound in the experiment “NVP-TAE684 + Pictilisib”: COc1cc(N2CCC(N3CCN(C)CC3)CC2)ccc1Nc1ncc(Cl)c(Nc2ccccc2S(=O)(=O)C(C)C)n1 [NVP-TAE684] + CS(=O)(=O)N1CCN(Cc2cc3nc(-c4cccc5[nH]ncc45)nc(N4CCOCC4)c3s2)CC1 [Pictilisib] (partner 1 µM)
In a few lines: as §1

Compound in the experiment “NVP-TAE684 + Alpelisib”: COc1cc(N2CCC(N3CCN(C)CC3)CC2)ccc1Nc1ncc(Cl)c(Nc2ccccc2S(=O)(=O)C(C)C)n1 [NVP-TAE684] + Cc1nc(NC(=O)N2CCC[C@H]2C(N)=O)sc1-c1ccnc(C(C)(C)C(F)(F)F)c1 [Alpelisib] (partner 2 µM)
The gist of the method: as §1

Turning to NCI-H2405, the relative viability was 0.462 with CUDC-101 + Pictilisib (first compound 0.01 µM); 0.419 with CUDC-101 + Pictilisib (first compound 0.03162 µM); 0.642 with CUDC-101 + Pictilisib (first compound 0.1 µM); 0.624 with CUDC-101 + Pictilisib (first compound 0.3162 µM); 0.336 in the experiment with CUDC-101 + Pictilisib (first compound 1 µM); 0.708 in experiment [1] (first compound 0.005 µM). Besides, the relative viability in experiment [1] (first compound 0.01581 µM) was found to be 0.638; in experiment [1] (first compound 0.05 µM), 0.654; in experiment [1] (first compound 0.1581 µM) it was 0.655; in experiment [1] (first compound 0.5 µM), 0.809; with NVP-TAE684 + Pictilisib (first compound 0.2 µM), 0.522; with NVP-TAE684 + Pictilisib (first compound 0.6325 µM) it was 0.348. Also, the relative viability was found to be 0.284 with NVP-TAE684 + Pictilisib (first compound 2 µM), 0.835 in the experiment with NVP-TAE684 + Alpelisib (first compound 0.2 µM), 0.662 in the experiment with NVP-TAE684 + Alpelisib (first compound 0.6325 µM) and 0.374 with NVP-TAE684 + Alpelisib (first compound 2 µM).
On to NCI-H3122, for which the relative viability in the experiment with CUDC-101 + Pictilisib (first compound 0.01 µM) turned out to be 0.539; with CUDC-101 + Pictilisib (first compound 0.03162 µM), 0.57; with CUDC-101 + Pictilisib (first compound 0.1 µM) it was 0.692; with CUDC-101 + Pictilisib (first compound 0.3162 µM) it was 0.73; with CUDC-101 + Pictilisib (first compound 1 µM), 0.54; in experiment [1] (first compound 0.005 µM), 0.0736. The relative viability in experiment [1] (first compound 0.01581 µM) was 0.0973; in experiment [1] (first compound 0.05 µM), 0.553; in experiment [1] (first compound 0.1581 µM), 0.0763; in experiment [1] (first compound 0.5 µM), 0.0863; with NVP-TAE684 + Pictilisib (first compound 0.2 µM), 0.211; in the experiment with NVP-TAE684 + Pictilisib (first compound 0.6325 µM), 0.181. Also, the relative viability with NVP-TAE684 + Pictilisib (first compound 2 µM) amounted to 0.202; in the experiment with NVP-TAE684 + Alpelisib (first compound 0.2 µM), 0.28; in the experiment with NVP-TAE684 + Alpelisib (first compound 0.6325 µM) it was 0.197; with NVP-TAE684 + Alpelisib (first compound 2 µM), 0.189.
PC-3 [JPC-3]: the relative viability with CUDC-101 + Pictilisib (first compound 0.01 µM) was found to be 0.756; in the experiment with CUDC-101 + Pictilisib (first compound 0.03162 µM), 0.632; with CUDC-101 + Pictilisib (first compound 0.1 µM) it was 0.277; in the experiment with CUDC-101 + Pictilisib (first compound 0.3162 µM), 0.348; with CUDC-101 + Pictilisib (first compound 1 µM), 0.245; in experiment [1] (first compound 0.005 µM) it was 0.681. In addition, the relative viability is 0.71 in experiment [1] (first compound 0.01581 µM); 0.693 in experiment [1] (first compound 0.05 µM); 0.724 in experiment [1] (first compound 0.1581 µM); 0.561 in experiment [1] (first compound 0.5 µM); 0.697 with NVP-TAE684 + Pictilisib (first compound 0.2 µM); 0.684 with NVP-TAE684 + Pictilisib (first compound 0.6325 µM). Moreover, the relative viability is 0.65 with NVP-TAE684 + Pictilisib (first compound 2 µM), 0.963 in the experiment with NVP-TAE684 + Alpelisib (first compound 0.2 µM), 1.02 with NVP-TAE684 + Alpelisib (first compound 0.6325 µM) and 0.893 in the experiment with NVP-TAE684 + Alpelisib (first compound 2 µM).
As to PC-14, the relative viability with CUDC-101 + Pictilisib (first compound 0.01 µM) stood at 0.936; in the experiment with CUDC-101 + Pictilisib (first compound 0.03162 µM) it was 0.562; in the experiment with CUDC-101 + Pictilisib (first compound 0.1 µM), 0.215; in the experiment with CUDC-101 + Pictilisib (first compound 0.3162 µM), 0.173; with CUDC-101 + Pictilisib (first compound 1 µM) it was 0.0519; in experiment [1] (first compound 0.005 µM), 0.197. In addition, the relative viability in experiment [1] (first compound 0.05 µM) was found to be 0.117; in experiment [1] (first compound 0.1581 µM) it was 0.119; in experiment [1] (first compound 0.5 µM), 0.155; with NVP-TAE684 + Pictilisib (first compound 0.2 µM) it was 0.726; in the experiment with NVP-TAE684 + Pictilisib (first compound 0.6325 µM), 0.589; in the experiment with NVP-TAE684 + Pictilisib (first compound 2 µM) it was 0.157. Moreover, the relative viability in the experiment with NVP-TAE684 + Alpelisib (first compound 0.2 µM) is 0.728; with NVP-TAE684 + Alpelisib (first compound 0.6325 µM) it was 1.05; with NVP-TAE684 + Alpelisib (first compound 2 µM), 0.874.
As to RERF-LC-KJ, the relative viability with CUDC-101 + Pictilisib (first compound 0.01 µM) worked out at 0.465; in the experiment with CUDC-101 + Pictilisib (first compound 0.03162 µM), 0.518; with CUDC-101 + Pictilisib (first compound 0.1 µM) it was 0.511; with CUDC-101 + Pictilisib (first compound 0.3162 µM) it was 0.485; with CUDC-101 + Pictilisib (first compound 1 µM) it was 0.376; in experiment [1] (first compound 0.005 µM), 0.935. Further, the relative viability was 0.982 in experiment [1] (first compound 0.01581 µM); 1.4 in experiment [1] (first compound 0.05 µM); 1.18 in experiment [1] (first compound 0.1581 µM); 1.06 in experiment [1] (first compound 0.5 µM); 0.613 with NVP-TAE684 + Pictilisib (first compound 0.2 µM); 0.484 with NVP-TAE684 + Pictilisib (first compound 0.6325 µM). Besides, the relative viability was determined as 0.494 with NVP-TAE684 + Pictilisib (first compound 2 µM), 0.789 with NVP-TAE684 + Alpelisib (first compound 0.2 µM), 0.743 in the experiment with NVP-TAE684 + Alpelisib (first compound 0.6325 µM) and 0.843 in the experiment with NVP-TAE684 + Alpelisib (first compound 2 µM).
Turning to SK-LU-1, the relative viability worked out at 0.703 with CUDC-101 + Pictilisib (first compound 0.01 µM); 0.597 in the experiment with CUDC-101 + Pictilisib (first compound 0.03162 µM); 0.628 in the experiment with CUDC-101 + Pictilisib (first compound 0.1 µM); 0.427 with CUDC-101 + Pictilisib (first compound 0.3162 µM); 0.381 with CUDC-101 + Pictilisib (first compound 1 µM); 0.185 in experiment [1] (first compound 0.005 µM). Besides, the relative viability turned out to be 0.194 in experiment [1] (first compound 0.01581 µM); 0.187 in experiment [1] (first compound 0.05 µM); 0.223 in experiment [1] (first compound 0.1581 µM); 0.197 in experiment [1] (first compound 0.5 µM); 0.501 in the experiment with NVP-TAE684 + Pictilisib (first compound 0.2 µM); 0.524 with NVP-TAE684 + Pictilisib (first compound 0.6325 µM). The relative viability in the experiment with NVP-TAE684 + Pictilisib (first compound 2 µM) was determined as 0.444; with NVP-TAE684 + Alpelisib (first compound 0.2 µM), 1.1; with NVP-TAE684 + Alpelisib (first compound 0.6325 µM), 0.863; in the experiment with NVP-TAE684 + Alpelisib (first compound 2 µM) it was 0.4.
In the case of SK-MES-1, the relative viability with CUDC-101 + Pictilisib (first compound 0.01 µM) was 0.356; in the experiment with CUDC-101 + Pictilisib (first compound 0.03162 µM), 0.34; with CUDC-101 + Pictilisib (first compound 0.1 µM) it was 0.317; in the experiment with CUDC-101 + Pictilisib (first compound 0.3162 µM), 0.256; in the experiment with CUDC-101 + Pictilisib (first compound 1 µM) it was 0.184; in experiment [1] (first compound 0.005 µM), 1.16. The relative viability in experiment [1] (first compound 0.01581 µM) was 0.937; in experiment [1] (first compound 0.05 µM) it was 0.669; in experiment [1] (first compound 0.1581 µM) it was 0.962; in experiment [1] (first compound 0.5 µM), 0.85; in the experiment with NVP-TAE684 + Pictilisib (first compound 0.2 µM), 0.475; with NVP-TAE684 + Pictilisib (first compound 0.6325 µM), 0.393. Further, the relative viability came out at 0.309 with NVP-TAE684 + Pictilisib (first compound 2 µM), 0.691 in the experiment with NVP-TAE684 + Alpelisib (first compound 0.2 µM), 1 with NVP-TAE684 + Alpelisib (first compound 0.6325 µM) and 0.827 with NVP-TAE684 + Alpelisib (first compound 2 µM).
As for SW 1573, the relative viability with CUDC-101 + Pictilisib (first compound 0.01 µM) is 0.582; with CUDC-101 + Pictilisib (first compound 0.03162 µM), 0.507; with CUDC-101 + Pictilisib (first compound 0.1 µM), 0.587; in the experiment with CUDC-101 + Pictilisib (first compound 0.3162 µM), 0.532; with CUDC-101 + Pictilisib (first compound 1 µM), 0.313; in experiment [1] (first compound 0.005 µM) it was 0.317. Besides, the relative viability in experiment [1] (first compound 0.01581 µM) came to 0.292; in experiment [1] (first compound 0.05 µM), 0.221; in experiment [1] (first compound 0.1581 µM) it was 0.275; in experiment [1] (first compound 0.5 µM) it was 0.193; with NVP-TAE684 + Pictilisib (first compound 0.2 µM) it was 0.571; with NVP-TAE684 + Pictilisib (first compound 0.6325 µM) it was 0.471. Further, the relative viability worked out at 0.39 with NVP-TAE684 + Pictilisib (first compound 2 µM), 0.574 with NVP-TAE684 + Alpelisib (first compound 0.2 µM), 0.827 with NVP-TAE684 + Alpelisib (first compound 0.6325 µM) and 0.592 with NVP-TAE684 + Alpelisib (first compound 2 µM).
